# Assays:
# [1] = system: CWR22R; test: Suppression of AR-V7 expression in human CWR22Rv1 cells expressing GFP measured after 3 days by FACS assay; assay type: functional, cell-based; details: 22Rv1, 72 h
# [2] = Toxicity in BALB/c mouse assessed as mouse death at 280 nM/body, iv measured after 24 hrs; assay type: organism-based; details: in vivo, 0.28 µM
# [3] = system: LNCaP; test: Suppression of AR-V7 expression in human LNCAP cells expressing GFP; assay type: functional, cell-based
# [4] = Toxicity in BALB/c mouse assessed as mouse death at 280 nM/body, iv administered on day 2 and day 4; assay type: organism-based; details: in vivo, 0.28 µM
# [5] = Toxicity in BALB/c mouse assessed as effect on weight loss at 280 nM/body, iv administered on day 2 and day 4; assay type: organism-based; details: in vivo, 0.28 µM
SMILES,IC50 [1] [µM],other results
CO[C@]1(C)C[C@@]2(CO2)[C@H](O)[C@@H](/C=C/C(C)=C/C[C@@H]2O[C@H](C)[C@H](NC(=O)/C=C\[C@H](C)OC(C)=O)C[C@@H]2C)O1,0.0006,Activity [2]: Toxic
CC(=O)O[C@@H](C)/C=C\C(=O)N[C@@H]1C[C@H](C)[C@H](C/C=C(C)/C=C/[C@H]2OCC[C@]3(O[C@H]3C)[C@@H]2O)O[C@@H]1C,0.187,–
CC(=O)O[C@@H](C)/C=C\C(=O)N[C@@H]1C[C@H](C)[C@H](C/C=C(C)/C=C/[C@H]2O[C@H](c3ccccc3)C[C@@]3(CO3)[C@@H]2O)O[C@@H]1C,–,IC50 [3]: 0.132 µM
CC(=O)O[C@@H](C)/C=C\C(=O)N[C@@H]1C[C@H](C)[C@H](C/C=C(C)/C=C/[C@H]2OCC[C@]3(O[C@@H]3C)[C@@H]2O)O[C@@H]1C,0.202,–
CC(=O)O[C@@H](C)/C=C\C(=O)N[C@@H]1C[C@H](C)[C@H](C/C=C(C)/C=C/[C@H]2OCC[C@@]3(CO3)[C@@H]2O)O[C@@H]1C,0.0033,Activity [4]: Non-Toxic; Activity [5]: Non-Toxic
